Columns and labels:
[1] = xn = mol fraction of the nth substance listed; conditions: 100 kPa, Liquid, Vibrating tube method
[2] = 100 kPa, Liquid, Vibrating tube method

C[S+](C)[O-] [dimethyl sulfoxide] + CC(=O)[O-].CCn1cc[n+](C)c1
[1], x1 = 1
Conditions | mass density [kg/m3]
293.15 K | 1100.2
303.15 K | 1090.2
313.15 K | 1080.4
323.15 K | 1070.2
333.15 K | 1060.3
343.15 K | 1050.2
353.15 K | 1040.2
363.15 K | 1029.9
373.15 K | 1019.8

CC(=O)[O-].CCn1cc[n+](C)c1 [1-ethyl-3-methylimidazolium acetate] + O
[1], x2 = 0.018
Conditions | mass density [kg/m3]
293.15 K | 1101.7
303.15 K | 1095.6
313.15 K | 1089.6
323.15 K | 1083.7
333.15 K | 1077.7
343.15 K | 1071.8
353.15 K | 1065.9
363.15 K | 1060
373.15 K | 1054.2

C[S+](C)[O-] [dimethyl sulfoxide] + O
[1], x1 = 0.998
Conditions | mass density [kg/m3]
293.15 K | 1100.2
303.15 K | 1090.2
313.15 K | 1080.4
323.15 K | 1070.2
333.15 K | 1060.3
343.15 K | 1050.2
353.15 K | 1040.2
363.15 K | 1029.9
373.15 K | 1019.8

C[S+](C)[O-] [dimethyl sulfoxide]
[2]
Conditions | mass density [kg/m3]
293.15 K | 1100.2
303.15 K | 1090.2
313.15 K | 1080.4
323.15 K | 1070.2
333.15 K | 1060.3
343.15 K | 1050.2
353.15 K | 1040.2
363.15 K | 1029.9
373.15 K | 1019.8

CC(=O)[O-].C[N+](C)(C)CCO [choline acetate] + C[S+](C)[O-]
mass density [kg/m3], [1]
Conditions | 293.15 K | 303.15 K | 313.15 K | 323.15 K | 333.15 K | 343.15 K | 353.15 K | 363.15 K | 373.15 K
x2 = 0.503 | – | – | – | – | – | 1067.3 | 1060.8 | 1054.6 | 1048.4
x2 = 0.598 | – | – | – | – | 1073.6 | 1066.7 | 1059.8 | 1053 | 1046.4
x2 = 0.701 | – | – | – | 1079.6 | 1072.3 | 1065 | 1057.6 | 1050.4 | 1043.3
x2 = 0.799 | – | – | 1086 | 1077.9 | 1070 | 1061.8 | 1053.8 | 1045.6 | 1037.6
x2 = 0.899 | 1102.7 | 1093.9 | 1085.1 | 1076.3 | 1067.4 | 1058.6 | 1049.8 | 1040.9 | 1032.3

CC(=O)[O-].CCn1cc[n+](C)c1 [1-ethyl-3-methylimidazolium acetate]
[2]
Conditions | mass density [kg/m3]
293.15 K | 1101.7
303.15 K | 1095.6
313.15 K | 1089.6
323.15 K | 1083.7
333.15 K | 1077.7
343.15 K | 1071.8
353.15 K | 1065.9
363.15 K | 1060
373.15 K | 1054.2
